pEC50: −log10 of the molar value.
Biological target: T1, human GR (Homo sapiens, UniProt P04150)
T1 construct: naturally expresses the human GR; endogenous in cells
T1 sequence (P04150 1-777): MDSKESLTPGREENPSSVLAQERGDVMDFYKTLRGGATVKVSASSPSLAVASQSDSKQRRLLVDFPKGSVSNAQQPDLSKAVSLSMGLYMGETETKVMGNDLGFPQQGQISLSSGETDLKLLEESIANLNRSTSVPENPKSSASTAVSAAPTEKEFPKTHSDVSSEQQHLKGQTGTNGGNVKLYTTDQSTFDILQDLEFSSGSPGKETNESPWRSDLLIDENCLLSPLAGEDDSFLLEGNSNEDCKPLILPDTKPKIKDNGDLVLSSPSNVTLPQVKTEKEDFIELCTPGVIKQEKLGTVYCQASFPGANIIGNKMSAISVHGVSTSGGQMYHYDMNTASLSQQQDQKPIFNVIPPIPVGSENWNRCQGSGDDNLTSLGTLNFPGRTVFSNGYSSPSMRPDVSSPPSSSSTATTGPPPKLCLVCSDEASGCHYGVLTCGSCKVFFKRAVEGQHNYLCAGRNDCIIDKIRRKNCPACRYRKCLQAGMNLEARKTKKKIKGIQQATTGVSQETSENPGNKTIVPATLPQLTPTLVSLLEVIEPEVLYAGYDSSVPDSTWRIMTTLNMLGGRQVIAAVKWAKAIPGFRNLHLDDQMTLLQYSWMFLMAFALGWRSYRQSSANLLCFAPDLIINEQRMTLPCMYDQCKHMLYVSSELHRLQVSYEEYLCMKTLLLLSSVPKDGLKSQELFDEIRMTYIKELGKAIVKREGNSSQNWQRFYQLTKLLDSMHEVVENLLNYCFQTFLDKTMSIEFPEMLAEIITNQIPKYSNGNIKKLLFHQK
Assay: Transrepression assay (GITAR), TNFα-β-lactamase reporter in U937 cells
Assay type: cell-based
Settings: for pEC50 / Transrepression U937 Cells GITAR Emax (%): U937 cells; for pEC50: IP = inflection point; for Emax: U-937, U937 cells; for Emax / Transrepression U937 Cells GITAR Emax (%): activity repressed by 100 nM dexamethasone alone set as 100%
Description: Transrepression Assay (GITAR)
This assay assesses the ability of test compounds to control transcription from the TNFα-β-lactamase reporter gene in U937 cells, a human myelomonocytic leukemia cell line that naturally expresses the human GR. The assay measures compound dependent-repression of the TNFa promoter linked to a reporter gene.
The human U937 cells that had been stablely transfected with the TNF-a promoter driving ˜-lactamase are used for this assay. U937 cells contain an endogenous glucocorticoid receptor (GR). Cells are maintained in RPMI 1640 Growth medium (GibcoCat#11875-093) containing 25 mM HEPES, 10% FBS, 2 mM L-Glutamine, 1 mM Sodium pyruvate, 25 μg/ml Gentamicin (Gibed Cat#1571 0-064), 1:1000 2-Mercaptoethanol (Gibco Cat#21985-023) and 0.8 mg/ml G418 (Gibco Cat#10131-027). The density of the cells in the flask needs to be about 1×10^6-3×10^6/ml at the time of harvest. Usually, the cells are split to 1.2˜1.4×10^5/ml (1:10) 3 days prior to the assay. 50,000 cells/well are plated in 96 well black-walled plates the day of assay. Test compounds are added 10 J.lL/well, and cells are incubated at 37° C. for 30˜45 min. For assaying compounds, first dilute 1:10 in DMSO to make 1 mM, then further dilute 1:100 in medium to make 10× stock prior to adding to the cells. Add 50 ng/ml PMA (Sigma, cat#P8139) 10 μL/well to a final concentration 5 ng/ml, and 1 μg/ml LPS (Sigma, cat#L4130) 10 μL/well to a final concentration 100 ng/ml. Incubate cells at 370 C overnight for −18 hr. PMA is stored frozen as […] in DMSO. Dilute 1:10 in DMSO for a working stock of 10 μg/ml and store at −20° C. For assaying, dilute the 10 μg/ml working stock 1:200 in medium to make a 10× solution (50 ng/ml). Store frozen LPS at 1 mg/ml in PBS, dilute 1:1000 in medium to make 10×μg/ml) for the assay. Add 6× loading buffer (CCF2-AM) 20 μL/well, and incubate at room temperature for 70-90 min. […] The activity repressed by 100 nM dexamethasone alone is set as 100% activity.

Row | pEC50 | Emax [%] | Transrepression U937 Cells GITAR Emax (%) | SMILES
1 | 7.17 | 85 | – | NC(=O)C(O)c1ccccc1CC[C@]1(O)CCC2=Cc3c(cnn3-c3ccc(F)cc3)C[C@@]21C1CC1 (single isomer, unassigned) [Example 3b]
2 | 6.66 | 54 | – | CC[C@]12Cc3cnn(-c4ccccc4)c3C=C1CC[C@@]2(O)CC(O)c1ccccn1 (single isomer, unassigned) [Example 67a]
3 | 6.56 | – | 44 | CC[C@]12Cc3cnn(-c4ccccc4)c3C=C1CC[C@@]2(O)CC(O)c1ccccn1 (single isomer, unassigned) [Example 67b]
4 | 6.95 | 74 | – | CC[C@]12Cc3cnn(-c4ccc(F)cc4)c3C=C1CC[C@@]2(O)CC(O)c1ccc(F)cn1 (single isomer, unassigned) [Example 69a]
5 | 7.03 | – | 80 | CC[C@]12Cc3cnn(-c4ccc(F)cc4)c3C=C1CC[C@@]2(O)CC(O)c1ccc(F)cn1 (single isomer, unassigned) [Example 69b]
6 | 6.78 | 41 | – | OC(C[C@]1(O)CCC2=Cc3c(cnn3-c3ccc(F)cc3)C[C@@]21C1CC1)c1ccc(F)cn1 (single isomer, unassigned) [Example 79a]

The next lines start with the compound.

Row | SMILES | pEC50 | Emax [%] | Transrepression U937 Cells GITAR Emax (%)
7 | NC(=O)c1cccnc1CC[C@]1(O)CCC2=Cc3c(cnn3-c3ccc(F)cc3)C[C@@]21C1CC1 [Example 1, 2-{2-[(4aR,5R)-4a-Cyclopropyl-1-(4-fluorophenyl)-5-hydroxy-1,4,4a,5,6,7-hexahydrocyclopenta[f]indazol-5-yl]ethyl}pyridine-3-carboxamide] | 7.26 | 77 | –
8 | NC(=O)c1cc(F)cnc1CC[C@]1(O)CCC2=Cc3c(cnn3-c3ccc(F)cc3)C[C@@]21C1CC1 [Example 4, 2-{2-[(4aR,5R)-4a-Cyclopropyl-1-(4-fluorophenyl)-5-hydroxy-1,4,4a,5,6,7-hexahydrocyclopenta[f]indazol-5-yl]ethyl}-5-fluoropyridine-3-carboxamide] | 7.08 | 71 | –
9 | CC[C@]12Cc3cnn(-c4cccnc4)c3C=C1CC[C@@]2(O)CCc1ccccc1C#N [Example 5, 2-{2-[(4aS,5R)-4a-Ethyl-5-hydroxy-1-(pyridin-3-yl)-1,4,4a,5,6,7-hexahydrocyclopenta[f]indazol-5-yl]ethyl}benzonitrile] | 7.51 | 80 | –
10 | CC[C@]12Cc3cnn(-c4ccccc4)c3C=C1CC[C@@]2(O)CCc1ccc(F)cc1C(N)=O [Example 6] | 6.84 | 75 | –
11 | NC(=O)c1ccccc1CC[C@]1(O)CCC2=Cc3c(cnn3-c3cccc(F)c3)C[C@@]21C1CC1 [Example 7, 2-{2-[(4aR,5R)-4a-Cyclopropyl-1-(3-fluorophenyl)-5-hydroxy-1,4,4a,5,6,7-hexahydrocyclopenta[f]indazol-5-yl]ethyl}benzamide] | 6.84 | 67 | –
12 | CC[C@]12Cc3cnn(-c4ccc(F)cc4)c3C=C1CC[C@@]2(O)CCc1ccc(F)cc1C(N)=O [Example 8, 2-{2-[(4aS,5R)-4a-Ethyl-1-(4-fluorophenyl)-5-hydroxy-1,4,4a,5,6,7-hexahydrocyclopenta[f]indazol-5-yl]ethyl}-5-fluorobenzamide] | 7.05 | 88 | –
13 | CC[C@]12Cc3cnn(-c4cccnc4)c3C=C1CC[C@@]2(O)CCc1ccc(F)cc1C#N [Example 9, 2-{2-[(4aS,5R)-4a-Ethyl-5-hydroxy-1-(pyridin-3-yl)-1,4,4a,5,6,7-hexahydrocyclopenta[f]indazol-5-yl]ethyl}-5-fluorobenzonitrile] | 6.92 | 71 | –
14 | CC[C@]12Cc3cnn(-c4cccnc4)c3C=C1CC[C@@]2(O)CCc1cccc(F)c1C#N [Example 10, 2-{2-[(4aS,5R)-4a-Ethyl-5-hydroxy-1-(pyridin-3-yl)-1,4,4a,5,6,7-hexahydrocyclopenta[f]indazol-5-yl]ethyl}-6-fluorobenzonitrile] | 6.95 | 64 | –
15 | CC[C@]12Cc3cnn(-c4cccc(F)c4)c3C=C1CC[C@@]2(O)CCc1ccccc1C(N)=O [Example 11, 2-{2-[(4aS,5R)-4a-Ethyl-1-(3-fluorophenyl)-5-hydroxy-1,4,4a,5,6,7-hexahydrocyclopenta[f]indazol-5-yl]ethyl}benzamide] | 7.10 | 82 | –
16 | CC[C@]12Cc3cnn(-c4cccc(F)c4)c3C=C1CC[C@@]2(O)CCc1cccc(F)c1C(N)=O [Example 12, 2-{2-[(4aS,5R)-4a-Ethyl-1-(3-fluorophenyl)-5-hydroxy-1,4,4a,5,6,7-hexahydrocyclopenta[f]indazol-5-yl]ethyl}-6-fluorobenzamide] | 7.60 | 87 | –
17 | CC[C@]12Cc3cnn(-c4cccnc4)c3C=C1CC[C@@]2(O)CCc1ccccc1C(N)=O [Example 13, 2-{2-[(4aS,5R)-4a-Ethyl-5-hydroxy-1-(pyridin-3-yl)-1,4,4a,5,6,7-hexahydrocyclopenta[f]indazol-5-yl]ethyl}benzamide] | 6.79 | 76 | –
18 | CC[C@]12Cc3cnn(-c4cccnc4)c3C=C1CC[C@@]2(O)CCc1cccc(F)c1C(N)=O [Example 14, 2-{2-[(4aS,5R)-4a-Ethyl-5-hydroxy-1-(pyridin-3-yl)-1,4,4a,5,6,7-hexahydrocyclopenta[f]indazol-5-yl]ethyl}-6-fluorobenzamide] | 7.37 | 88 | –
19 | CC[C@]12Cc3cnn(-c4ccccc4)c3C=C1CC[C@@]2(O)CCc1cccc(F)c1C#N [Example 15, 2-{2-[(4aS,5R)-4a-Ethyl-5-hydroxy-1-phenyl-1,4,4a,5,6,7-hexahydrocyclopenta[f]indazol-5-yl]ethyl}-6-fluorobenzonitrile] | 6.94 | 89 | –
20 | CC[C@]12Cc3cnn(-c4ccc(F)cc4)c3C=C1CC[C@@]2(O)CCc1ccccn1 [Example 16, (4aS,5R)-4a-Ethyl-1-(4-fluorophenyl)-5-[2-(pyridin-2-yl)ethyl]-1,4,4a,5,6,7-hexahydrocyclopenta[f]indazol-5-ol] | 7.03 | 79 | –
21 | CC[C@]12Cc3cnn(-c4ccc(F)cc4)c3C=C1CC[C@@]2(O)CCc1ncccc1F [Example 17, (4aS,5R)-4a-Ethyl-1-(4-fluorophenyl)-5-[2-(3-fluoropyridin-2-yl)ethyl]-1,4,4a,5,6,7-hexahydrocyclopenta[f]indazol-5-ol] | 7.36 | 89 | –
22 | CC[C@]12Cc3cnn(-c4ccc(F)cc4)c3C=C1CC[C@@]2(O)CCc1cc(F)ccn1 [Example 18, (4aS,5R)-4a-Ethyl-1-(4-fluorophenyl)-5-[2-(4-fluoropyridin-2-yl)ethyl]-1,4,4a,5,6,7-hexahydrocyclopenta[f]indazol-5-ol] | 7.13 | 80 | –
23 | CC[C@]12Cc3cnn(-c4ccc(F)cc4)c3C=C1CC[C@@]2(O)CCc1ccc(F)cn1 [Example 19, (4aS,5R)-4a-Ethyl-1-(4-fluorophenyl)-5-[2-(5-fluoropyridin-2-yl)ethyl]-1,4,4a,5,6,7-hexahydrocyclopenta[f]indazol-5-ol] | 6.58 | 77 | –
24 | CC[C@]12Cc3cnn(-c4ccccc4)c3C=C1CC[C@@]2(O)CCc1ccccc1C(N)=O [Example 20, 2-{2-[(4aS,5R)-4a-Ethyl-5-hydroxy-1-phenyl-1,4,4a,5,6,7-hexahydrocyclopenta[f]indazol-5-yl]ethyl}benzamide] | 7.55 | 86 | –

Source: patent US20120214847A1, “2-[1-PHENYL-5-HYDROXY-4a-SUBSTITUTED-HEXAHYDROCYCLOPENTA[F]INDAZOL-5-YL]ETHYL PHENYL DERIVATIVES AS GLUCOCORTICOID RECEPTOR LIGANDS” (Merck Sharp & Dohme Corp., priority 2009, published 2012)
